Structures can show the parent of a compound that is named as a salt.
Experiment: hygroscopicity by the micro balance method (Gravimetric Vapour Sorption System DVS-1)
Type: physicochemical
Details: FIG. 2 (A); temperature 25.1° C.
Description: Next, it will be illustrated that although Compound (IV) prepared according to the present invention is a mono lysine salt, it has excellent […] in a comparison with a dilysine salt. Note that, a dilysine salt can be prepared by the methods disclosed in Published Japanese Translation of a PCT Application No. 2003-520235. […] Note that, the measurement instrument used in the micro balance method was the following apparatus:
Gravimetric Vapour Sorption System (Model DVS-1 Surface Measurement System).

With C[C@@H](c1nc(-c2ccc(C#N)cc2)cs1)[C@@](Cn1cncn1)(OCOP(=O)(O)O)c1ccc(F)cc1F [mono lysine salt] the “relative humidity at which moisture absorption phenomenon was observed” value was 70 % RH.
